Assay results from BigSolDB 2.1.

COc1cc(/C=C/C(=O)CC(=O)/C=C/c2ccc(O)c(OC)c2)ccc1O
solubility (mole fraction)
Details | 278.15 K | 283.15 K | 288.15 K | 293.15 K | 298.15 K | 303.15 K | 308.15 K | 313.15 K | 318.15 K
in ethanol | 0.000407 | 0.000497 | 0.000573 | 0.000662 | 0.000769 | 0.000888 | 0.00101 | 0.00113 | 0.00128
in isopropanol | 0.00146 | 0.0017 | 0.00194 | 0.00219 | 0.00252 | 0.00284 | 0.00317 | 0.00357 | 0.004
in n-propanol | 0.0023 | 0.0026 | 0.00291 | 0.00325 | 0.0036 | 0.00401 | 0.00437 | 0.00484 | 0.00526
in propylene glycol | 0.000715 | 0.000827 | 0.000967 | 0.0011 | 0.00126 | 0.00143 | 0.00161 | 0.00182 | 0.00206
in water | 8.34e-09 | 1.16e-08 | 1.59e-08 | 2.15e-08 | 2.94e-08 | 4.03e-08 | 5.38e-08 | 7.06e-08 | 9.32e-08
